The record followed here is patent US20240018123A1, “COMPOUND FOR INHIBITING OR DISINTEGRATING ANDROGEN RECEPTOR, AND PHARMACEUTICAL USE THEREOF” (KOREA RESEARCH INSTITUTE OF CHEMICAL TECHNOLOGY, priority 2020, published 2024).

SMILES strings stand for the structures.

For the data set, the system named is VCaP cells. The experiment in a line: Cytotoxicity assessment (Cell-titer-glo cell viability), VCaP. The conditions noted are these: read-out: VCaP (CC50); VCaP cells, 6 days of treatment, Cell-titer-glo, vs DMSO.

On to `CC1(C)C(NC(=O)c2ccc(N3CC4CN(CC5CCN(C(=O)C6CCN(c7ccc8nnn(C9CCC(=O)NC9=O)c(=O)c8c7)CC6)CC5)CC4C3)cc2)C(C)(C)C1Oc1ccc(C#N)c(Cl)c1` (stereo not drawn) [Example 139, N-((1r,3r)-3-(3-chloro-4-cyanophenoxy)-2,2,4,4-tetramethylcyclobutyl)-4-(5-((1-(1-(3-(2,6-dioxopiperidin-3-yl)-4-oxo-3,4-dihydrobenzo[d][1,2,3]triazin-6-yl)piperidine-4-carbonyl)piperidin-4-yl)methyl)hexahydropyrrolo[3,4-c]pyrrol-2(1H)-yl)benzamide], for which the CC50 is 0.0695 µM.

As for `CC1(C)C(NC(=O)c2ccc(-n3cc(CN4CCN(c5ccc6nnn(C7CCC(=O)NC7=O)c(=O)c6c5)CC4)nn3)cc2)C(C)(C)C1Oc1ccc(C#N)c(Cl)c1` (stereo not drawn) [Example 120, N-((1r,3r)-3-(3-chloro-4-cyanophenoxy)-2,2,4,4-tetramethylcyclobutyl)-4-(4-((4-(3-(2,6-dioxopiperidin-3-yl)-4-oxo-3,4-dihydrobenzo[d][1,2,3]triazin-6-yl)piperazin-1-yl)methyl)-1H-1,2,3-triazol-1-yl)benzamide], the 50% cytotoxic concentration (CC50) worked out at 0.0297 µM.

In the case of `CC1(C)C(NC(=O)c2ccc(N3CCN(Cc4cn(C5CCN(c6ccc7nnn(C8CCC(=O)NC8=O)c(=O)c7c6)CC5)nn4)CC3)cc2)C(C)(C)C1Oc1ccc(C#N)c(Cl)c1` (stereo not drawn) [Example 105, N-((1r,3r)-3-(3-chloro-4-cyanophenoxy)-2,2,4,4-tetramethylcyclobutyl)-4-(4-((1-(1-(3-(2,6-dioxopiperidin-3-yl)-4-oxo-3,4-dihydrobenzo[d][1,2,3]triazin-6-yl)piperidin-4-yl)-1H-1,2,3-triazol-4-yl)methyl)piperazin-1-yl)benzamide], the CC50 was 0.0802 µM.

Take `CC1(C)C(NC(=O)c2ccc(-n3cc(CCOCCOCCNC(=O)C4CN(c5ccc6nnn(C7CCC(=O)NC7=O)c(=O)c6c5)C4)nn3)cc2)C(C)(C)C1Oc1ccc(C#N)c(Cl)c1` (stereo not drawn) [Example 157, N-(2-(2-(2-(1-(4-(((1r,3r)-3-(3-chloro-4-cyanophenoxy)-2,2,4,4-tetramethylcyclobutyl)carbamoyl)phenyl)-1H-1,2,3-triazol-4-yl)ethoxy)ethoxy)ethyl)-1-(3-(2,6-dioxopiperidin-3-yl)-4-oxo-3,4-dihydrobenzo[d][1,2,3]triazin-6-yl)azetidine-3-carboxamide]: the CC50 turned out to be 0.0321 µM.

Regarding `CC1(C)[C@H](NC(=O)c2cnc(N3CCN(CC4CCN(c5ccc6nnn(C7CCC(=O)NC7=O)c(=O)c6c5)CC4)CC3)nc2)C(C)(C)[C@H]1Oc1ccc(C#N)c(Cl)c1` (stereo partly drawn) [Example 100, N-((1r,3r)-3-(3-chloro-4-cyanophenoxy)-2,2,4,4-tetramethylcyclobutyl)-2-(4-((1-(3-(2,6-dioxopiperidin-3-yl)-4-oxo-3,4-dihydrobenzo[d][1,2,3]triazin-6-yl)piperidin-4-yl)methyl)piperazin-1-yl)pyrimidine-5-carboxamide], the CC50 is 0.002 µM.

`CC1(C)C(NC(=O)c2cnc(N3CCN(CC4CCN(C(=O)CNc5ccc6nnn(C7CCC(=O)NC7=O)c(=O)c6c5)CC4)CC3)nc2)C(C)(C)C1Oc1ccc(C#N)c(Cl)c1` (stereo not drawn) [Example 147, N-((1r,3r)-3-(3-chloro-4-cyanophenoxy)-2,2,4,4-tetramethylcyclobutyl)-2-(4-((1-((3-(2,6-dioxopiperidin-3-yl)-4-oxo-3,4-dihydrobenzo[d][1,2,3]triazin-6-yl)glycyl)piperidin-4-yl)methyl)piperazin-1-yl)pyrimidine-5-carboxamide]: the CC50 was roughly 0.01 µM.

For `CC1(C)C(NC(=O)c2ccc(-n3cc(CN4CCN(C(=O)C5CCN(c6ccc7nnn(C8CCC(=O)NC8=O)c(=O)c7c6)CC5)CC4)nn3)cc2)C(C)(C)C1Oc1ccc(C#N)c(Cl)c1` (stereo not drawn) [Example 121, N-((1r,3r)-3-(3-chloro-4-cyanophenoxy)-2,2,4,4-tetramethylcyclobutyl)-4-(4-((4-(1-(3-(2,6-dioxopiperidin-3-yl)-4-oxo-3,4-dihydrobenzo[d][1,2,3]triazin-6-yl)piperidine-4-carbonyl)piperazin-1-yl)methyl)-1H-1,2,3-triazol-1-yl)benzamide], the CC50 was found to be 0.018 µM.

`CC1(C)C(NC(=O)c2ccc(-n3cc(CC4CCN(C(=O)C5CCN(c6ccc7nnn(C8CCC(=O)NC8=O)c(=O)c7c6)CC5)CC4)nn3)cc2)C(C)(C)C1Oc1ccc(C#N)c(Cl)c1` (stereo not drawn) [Example 104, N-((1r,3r)-3-(3-chloro-4-cyanophenoxy)-2,2,4,4-tetramethylcyclobutyl)-4-(4-((1-(1-(3-(2,6-dioxopiperidin-3-yl)-4-oxo-3,4-dihydrobenzo[d][1,2,3]triazin-6-yl)piperidine-4-carbonyl)piperidin-4-yl)methyl)-1H-1,2,3-triazol-1-yl)benzamide]: the CC50 worked out at 0.0169 µM.

In the case of `CC1(C)C(NC(=O)c2ccc(-n3cc(CCNC(=O)C4CN(c5ccc6nnn(C7CCC(=O)NC7=O)c(=O)c6c5)C4)nn3)cc2)C(C)(C)C1Oc1ccc(C#N)c(Cl)c1` (stereo not drawn) [Example 155, N-(2-(1-(4-(((1r,3r)-3-(3-chloro-4-cyanophenoxy)-2,2,4,4-tetramethylcyclobutyl)carbamoyl)phenyl)-1H-1,2,3-triazol-4-yl)ethyl)-1-(3-(2,6-dioxopiperidin-3-yl)-4-oxo-3,4-dihydrobenzo[d][1,2,3]triazin-6-yl)azetidine-3-carboxamide], the CC50 was found to be 0.177 µM.

`CC1(C)C(NC(=O)c2cnc(N3CCN(CC4CCN(C(=O)C5CN(c6ccc7nnn(C8CCC(=O)NC8=O)c(=O)c7c6)C5)CC4)CC3)nc2)C(C)(C)C1Oc1ccc(C#N)c(Cl)c1` (stereo not drawn) [Example 146, N-((1r,3r)-3-(3-chloro-4-cyanophenoxy)-2,2,4,4-tetramethylcyclobutyl)-2-(4-((1-(1-(3-(2,6-dioxopiperidin-3-yl)-4-oxo-3,4-dihydrobenzo[d][1,2,3]triazin-6-yl)azetidine-3-carbonyl)piperidin-4-yl)methyl)piperazin-1-yl)pyrimidine-5-carboxamide]: the CC50 was roughly 0.01 µM.

Regarding `CC1(C)C(NC(=O)c2ccc(C#CCC3CCN(CC4CCN(C(=O)C5CN(c6ccc7nnn(C8CCC(=O)NC8=O)c(=O)c7c6)C5)CC4)CC3)nc2)C(C)(C)C1Oc1ccc(C#N)c(Cl)c1` (stereo not drawn) [Example 127, N-((1r,3r)-3-(3-chloro-4-cyanophenoxy)-2,2,4,4-tetramethylcyclobutyl)-6-(3-(1-((1-(1-(3-(2,6-dioxopiperidin-3-yl)-4-oxo-3,4-dihydrobenzo[d][1,2,3]triazin-6-yl)azetidine-3-carbonyl)piperidin-4-yl)methyl)piperidin-4-yl)prop-1-yn-1-yl)nicotinamide], the CC50 amounted to 0.027 µM.

With `CC1(C)C(NC(=O)c2ccc(N3CC4CN(C(=O)COc5ccc6nnn(C7CCC(=O)NC7=O)c(=O)c6c5)CC4C3)cc2)C(C)(C)C1Oc1ccc(C#N)c(Cl)c1` (stereo not drawn) [Example 135, N-((1r,3r)-3-(3-chloro-4-cyanophenoxy)-2,2,4,4-tetramethylcyclobutyl)-4-(5-(2-((3-(2,6-dioxopiperidin-3-yl)-4-oxo-3,4-dihydrobenzo[d][1,2,3]triazin-6-yl)oxy)acetyl)hexahydropyrrolo[3,4-c]pyrrol-2(1H)-yl)benzamide], the CC50 was roughly 0.01 µM.
